Source: publication PMC11117252, “The MraY Inhibitor Muraymycin D2 and Its Derivatives Induce Enlarged Cells in Obligate Intracellular Chlamydia and Wolbachia and Break the Persistence Phenotype in Chlamydia” (Antibiotics, 2024)
Values after ≈ are worked out from the molar mass of the structure shown. Like-named read-outs stand apart in the source and are kept apart here. Blank lines part the entries; values can stand above or below the compound they belong to.

Experiments:
C. trachomatis D/UW-3/CX [1] = test: Anti-chlamydial activity (MIC) in C. trachomatis-infected HEp-2 cells, fluorescence microscopy; assay type: cell-based; settings: for Effect on C. trachomatis infection (phenotype): added at 2 hpi, read at 30 hpi, HEp-2 cells; for MIC: C. trachomatis D/UW-3/CX-infected HEp-2 cells, compound added at 2 hpi, fluorescence microscopy at 30 hpi, MIC = lowest concentration with >90% reduction in inclusions or inducing enlarged aberrant cells, three experiments
Experimental: First, we tested the lead compound MRY D2 (Figure 1a) and seven muraymycin derivatives (MRH; described in [47, 48]) on C. trachomatis in cell culture experiments. To this end, C. trachomatis D/UW-3/CX-infected HEp-2 cells were treated with the compounds at 2 h post infection (hpi; Figure 1b), which represents an early stage of the chlamydial developmental cycle before bacterial replication. Inhibitors were applied over a range of concentrations that were not detrimental to HEp-2 host cells in resazurin-based viability assays (Table S1), and the effects were visualized by fluorescence microscopy (Figure 1c and Figure S2) at 30 hpi. The minimal inhibitory concentration (MIC) for Chlamydia was defined as either the lowest concentration leading to a >90% reduction in inclusions or, for aberrance-inducing compounds, the concentration leading to abnormal chlamydial cell phenotypes, i.e., enlarged cells after treatment with PEN G [39].
(§1) The effect of the compounds on active C. trachomatis infections was analyzed by fluorescence microscopy. […] The cells were washed once with medium and infected with freshly prepared C. trachomatis D/UW-3/CX EB-containing suspension. After 2 h incubation, the EB suspension was aspirated, and the cells were washed twice with medium. The effect of compounds on an infection was determined by application of the compound at 2 hpi or 12 hpi in a serial dilution from 1 µg/mL to 64 µg/mL (MRH-25, -76, -92, cCPZ) or from 1 µg/mL to 128 µg/mL (MRY D2, MRH-22, -23, -38, and -82). Negative controls were conducted with DMSO as a vehicle control. For Chlamydia, the MIC is defined as a >90% reduction in inclusions. The MIC of compounds inducing the formation of enlarged, aberrant bodies is the lowest concentration that induces the abnormal inclusion morphology.
(§2) Infected HEp-2 cells were fixed and permeabilized with 100% (v/v) ice-cold methanol at 30 hpi and washed once with 1 × phosphate-buffered saline (PBS, 4 mM KH2PO4 pH 7.4, 16 mM Na2HPO4, 115 mM NaCl). The Pathfinder Chlamydia Culture Confirmation System (Bio-Rad Laboratories, Hercules, CA) was used to stain the C. trachomatis lipopolysaccharide and host cell cytoplasm by incubation for 30 min at 37 °C. Genomic DNA was stained with 10 µg/mL DAPI (Thermo Fisher Scientific) for 1 min and then washed twice with PBS for 10 min at 4 °C. Fluorescence microscopy was performed with an Axio observer Z.1 using the Zen2 software (Carl Zeiss, Oberkochen, Germany).

C. pneumoniae MraY = test: Inhibition of C. pneumoniae MraY in vitro (lipid I formation, TLC); assay type: biochemical; settings: 0.5 µM compound (range tested 0.05-0.5 µM), 2 µg MraYCpn, C55-P, UDP-MurNAc-pentapeptide, 90 min, duplicate
From the text: (a) C. pneumoniae and Wolbachia spp. MraY use the precursor molecules undecaprenyl-phosphate (C55-P) and uridine diphosphate (UDP)-N-acetylmuramoyl(MurNAc)-pentapeptide to form lipid I, which is glycosylated with N-acetylglucosamine (GlcNAc) by MurG, yielding lipid II. IM: inner membrane; UMP: uridine monophosphate; mDAP: meso-diaminopimelic acid; C55-P: undecaprenyl-phosphate. […] Reaction products were extracted, separated via thin-layer chromatography, and stained. Formation of lipid I by MraYCpn was inhibited by both tested inhibitors.
C. pneumoniae MraY was heterologously overexpressed in E. coli, purified via His-tag affinity chromatography, and inhibition of the enzymatic activity was analyzed by visualizing the reaction products via thin-layer chromatography.
Inhibition assays with MraYCpn and the compounds were performed based on the activity assays for MraYCpn as previously described, with minor modifications, in a final volume of 50 µL. First, 2.5 nmol C55-P (Larodan, Solna, Sweden) was dissolved in 0.43% (v/v) Triton X-100 by vortexing for 1 min. Then, 75 mM Tris-HCl (pH 7.5), 6 mM MgCl2, 10% (v/v) DMSO, and UDP-MurNAc-pentapeptide obtained from Bacillus cereus DSM2302 (based on) were added. Compounds were applied at the indicated concentrations and incubated with 2 µg MraYCpn at 30 °C for 90 min. […]

C. trachomatis D/UW-3/CX [2] = test: Effect of MRY D2 on active (mid-stage) and penicillin G-induced persistent C. trachomatis infections, inclusion counts; assay type: cell-based; settings: read at 30 hpi
Experimental: Figure 6 Effect of MRY D2 on PEN G-induced persistent C. trachomatis infections. (a) HEp-2 cells infected with C. trachomatis D/UW-3/CX were treated with 128 µg/mL MRY D2 at 2 hpi or 12 hpi to analyze the effect on active infection. Additionally, 128 µg/mL MRY D2 and 100 U/mL PEN G were added simultaneously at 2 hpi. To assess the effect on a PEN G-induced persistent infection, 100 U/mL PEN G was added at 2 hpi, and 128 µg/mL MRY D2 was added at 12 hpi. Anti-chlamydial activity was analyzed at 30 hpi by fluorescence microscopy. (b) Eukaryotic host cell cytoplasm from representative images was labelled with Evans Blue (red), genomic DNA with DAPI (blue), and chlamydial lipopolysaccharide with fluorescein (green). Scale bar: 10 µm. (c) Mean ± SD of inclusions/field and (d) the relative number of inclusions filled with either elementary bodies (EBs)/reticulate bodies (RBs), ABs, or a mixed phenotype, analyzed from three images. An unpaired, two-tailed Student’s t-test was performed against the respective vehicle control. ns: not significant, p > 0.05; *: p = 0.05 to 0.01; **: p = 0.01 to 0.001; ****: p < 0.0001. In comparison with the DMSO vehicle control, the addition of PEN G at 2 hpi induced persistence, characterized by aberrant bodies. Early application of MRY D2 at 2 hpi (p < 0.0001) and simultaneous application with PEN G at 2 hpi induced the formation of ABs. […] This was also visible if persistence was induced by PEN G at 2 hpi followed by MRY D2 addition at 12 hpi (p = 0.0037).
as §1
The effect of MRY D2 on penicillin-induced persistent C. trachomatis infections was analyzed as described for the active infection, with the following modifications. After removal of the EB-containing lysate at 2 hpi and washing of the cells, 100 U/mL PEN G was added to induce a persistent infection. MRY D2 was added at 12 hpi in a concentration range of 128 µg/mL to 1 µg/mL by serial dilution. In another approach, MRY D2 was applied simultaneously with PEN G at 2 hpi to determine if early administration influences the establishment of a persistent infection.
as §2, with “Genomic DNA was stained with 10 µg/mL DAPI (Thermo Fisher Scientific) for 1 min and then washed twice with PBS for 10 min at 4 °C.” left out
Inclusions were quantified using CellProfiler 4.0.6. […]

HEp-2 cells [3] = test: Cytotoxicity toward HEp-2 cells, resazurin-based alamarBlue viability assay; settings: 28 h incubation, normalized to DMSO, non-linear regression from mean of two independent experiments, highest concentration tested 128 µg/mL
C. trachomatis serovar D = C. trachomatis serovar D in cell culture; cited from earlier work
Experimental: The tested compounds were applied to C. trachomatis-infected cells at an early stage of the chlamydial developmental cycle (Figure 1a), before the bacteria started replicating. During the early treatment with MRY D2, the majority of muraymycin derivatives and cCPZ had MICs between 16 µg/mL for cCPZ and 128 µg/mL for MRY D2 (Figure 1d). These MICs were relatively high compared with the MICs of the first-choice antibiotics against uncomplicated chlamydial genital infections, DOX and AZI, which have MICs of <1 µg/mL against C. trachomatis serovar D in cell culture. All der ...

[4] = test system: Wolbachia strain B of A. albopictus; test: Quantification (depletion) of Wolbachia by qPCR, 16S rDNA/actin B ratio; assay type: cell-based, Wolbachia strain B of Aedes albopictus; settings: 4 µg/mL, 9 days, C6/36 cells, positive control
Experimental: (a) A. albopictus C6/36 cells infected with Wolbachia strain B of A. albopictus were cultured for 9 days with or without the compounds at varying concentrations. […] (c) The depletion of Wolbachia from infected and treated C6/36 cells was measured after 9 days by extracting genomic DNA and measuring the ratio of Wolbachia 16S rDNA and A. albopictus actin B by qPCR; the median ± interquartile range from three experiments is shown.
Susceptibility of Wolbachia toward different compounds was tested as described [32, 53]. In short, 1 × 10^4 cells/well of A. albopictus C6/36 infected with Wolbachia were cultured in supplemented medium in 96-well plates with or without compound at 26 °C for 9 days. The medium, with and without compound, was exchanged every third day, and the cells were harvested on day 9 for the extraction of genomic DNA using the QIAamp Kit (Qiagen, Hilden, Germany) according to the manufacturer’s protocol. Wolbachia were quantified by qPCR of the 16S rDNA gene of Wolbachia (GenBank accession No. X61767) and the actin B gene of A. albopictus (GenBank accession no. DQ657949) as described [32, 91]. A plasmid containing the appropriate insert was used to generate a standard curve to determine the copy number of the genes. The abundance of Wolbachia was normalized by calculating the ratio of 16S rDNA copies/µL to actin B copies/µL.

HEp-2 cells [5] = test system: HEp-2 cells
[6] = 128 µg/mL MRY D2 alone added at 12 hpi

Structure (SMILES): O=C(O)c1cn(C2CC2)c2cc(N3CCNCC3)c(F)cc2c1=O [CIP, ciprofloxacin, reference compound]
Effect on C. trachomatis infection (phenotype) (C. trachomatis D/UW-3/CX [1]; 0.5 µg/mL): bactericidal

Structure (SMILES): CC(C)C[C@H](NC(=O)[C@@H](NC(=O)N[C@H](C(=O)O)C(C)C)[C@@H]1CCN=C(N)N1)C(=O)NCCCN[C@H](C(=O)O)[C@H](O[C@@H]1O[C@H](CN)[C@@H](O)[C@H]1O)[C@H]1O[C@@H](n2ccc(=O)[nH]c2=O)[C@H](O)[C@@H]1O [MRY D2, Muraymycin D2]
MIC (C. trachomatis D/UW-3/CX [1]): 128 µg/mL (≈ 140 µM)
Inhibition of lipid I formation by recombinant MraYCpn (C. pneumoniae MraY): completely abolished enzymatic activity
Relative number of inclusions containing EBs/RBs (C. trachomatis D/UW-3/CX [2]; [6]): 83%
Relative number of inclusions containing a mixed phenotype (EBs/RBs/ABs) (C. trachomatis D/UW-3/CX [2]; [6]): 8%
Phenotype on simultaneous treatment with PEN G (C. trachomatis D/UW-3/CX [2]; 128 µg/mL MRY D2 and 100 U/mL PEN G added simultaneously at 2 hpi): inclusions filled with ABs were visible as for PEN G alone
Fewer inclusions (reduction in inclusion number) (C. trachomatis D/UW-3/CX [2]; active infection: 128 µg/mL MRY D2 alone added at 12 hpi): 75%
Reduction of the inclusion quantity (C. trachomatis D/UW-3/CX [2]; established persistent infection: 100 U/mL PEN G at 2 hpi, then 128 µg/mL MRY D2 at 12 hpi, vs PEN G only): 70%
CC50 (HEp-2 cells [3]): > 128 µg/mL

Structure (SMILES): CC[C@H]1OC(=O)[C@H](C)[C@@H](O[C@H]2C[C@@](C)(OC)[C@@H](O)[C@H](C)O2)[C@H](C)[C@@H](O[C@@H]2O[C@H](C)C[C@H](N(C)C)[C@H]2O)[C@](C)(O)C[C@@H](C)CN(C)[C@H](C)[C@@H](O)[C@]1(C)O [AZI, azithromycin]
MIC (C. trachomatis serovar D): < 1 µg/mL

Structure (SMILES): C[C@H]1c2cccc(O)c2C(=O)C2=C(O)[C@]3(O)C(=O)C(C(N)=O)=C(O)[C@@H](N(C)C)[C@@H]3[C@@H](O)[C@@H]21 [DOX, doxycycline]
Depletion of Wolbachia (16S rDNA/actin B by qPCR) [4]: nearly completely depleted
MIC (C. trachomatis serovar D): < 1 µg/mL

MIC (C. trachomatis D/UW-3/CX [1]): 16 µg/mL (≈ 20.1 µM)
Structure (SMILES): CCCCCCCCCCCCCCCCC[C@H]1CN(C)[C@@H]([C@H](O[C@@H]2O[C@H](CN)[C@@H](O)[C@H]2O)[C@H]2O[C@@H](n3ccc(=O)[nH]c3=O)[C@H](O)[C@@H]2O)C(=O)N(C)[C@@H]1C(=O)O [cCPZ, carbacaprazamycin]
CC50 (HEp-2 cells [5]): 124 µg/mL (≈ 155 µM)

Structure (SMILES): CC1(C)S[C@@H]2[C@H](NC(=O)Cc3ccccc3)C(=O)N2[C@H]1C(=O)O [PEN, penicillin, reference compound]
Effect on C. trachomatis infection (phenotype) (C. trachomatis D/UW-3/CX [1]; 100 U/mL): induced persistence visible as enlarged, aberrant bodies
